Assays:
Plasmodium falciparum [1] = experiment: NOVARTIS: Inhibition of Plasmodium falciparum 3D7 (drug-susceptible) proliferation in erythrocyte-based infection assay; format: functional, organism-based; settings: Plasmodium falciparum, 3D7
Plasmodium falciparum [2] = experiment: NOVARTIS: Inhibition of Plasmodium falciparum W2 (drug-resistant) proliferation in erythrocyte-based infection assay; format: functional, organism-based; settings: Plasmodium falciparum, W2; read-out: EC50
[3] = NOVARTIS: Cytotoxicity against human hepatocellular carcinoma cell line (Huh7); format: toxicity, cell-based, Huh-7; settings: Huh7 cells (hepatocellular carcinoma cell line)

| Compound | EC50 (Plasmodium falciparum [1]) [µM] | EC50 (Plasmodium falciparum [2]) [µM] | CC50 [3] [µM] |
| --- | --- | --- | --- |
| N=c1c2c(n(CCc3ccccc3)c3c1CCC3)CCCC2 | 0.0587 | 0.234 | 15.3 |
| COc1cc(NC(C)CCCN(Cc2ccc(Cl)cc2)C(=O)Nc2ccc(Br)cc2)c2ncccc2c1 (configuration not stated) | > 1.25 | 0.788 | > 5.6 |
| CCCCNC(=O)N1CCN(C(=O)C(Cc2c[nH]c3ccccc23)NC(=O)Nc2cccc(C#N)c2)CC1C (configuration not stated) | 0.153 | 0.191 | > 100 |
| COc1ccccc1NC(=O)N(Cc1ccccc1)C(C)c1nc2ccccc2c(=O)n1-c1cc(C)ccc1OC (configuration not stated) | 0.344 | < 0.0156 | > 10 |
| Cc1ccccc1N1C(=O)N(c2ccccc2)C2CS(=O)(=O)CC21 (configuration not stated) | 1.92 | > 1.25 | > 10 |
| O=c1[nH]c(N2CCCC2)nc2c1CCN(Cc1coc3ccccc3c1=O)C2 | > 1.25 | > 0.896 | > 10 |
| Cc1ccc(O)c(NC(=O)c2cnn3c(C(F)(F)F)cc(-c4ccccc4)nc23)c1 | 1.82 | 0.472 | > 100 |
| Cc1oc2c(c1C(=O)NCc1cccnc1)C(=O)c1ccccc1C2=O | 1.5 | 1.75 | 1.91 |
| CC(=O)N(C)C1=C(N2CCCC2)C(=O)c2ccccc2C1=O | 0.516 | 0.299 | 15.1 |
| CN(C)c1ccc(/C=C/c2nc(=O)c3ccccc3o2)cc1 | 0.13 | 0.0936 | > 10 |
| CCC(c1nc2ccccc2c(=O)n1-c1ccccc1OC)N(CCc1ccccc1)C(=O)CCc1ccccc1 (configuration not stated) | 0.135 | < 0.000572 | 4.17 |
| COc1ccc(Cl)cc1NC(=O)CSC1=C(C#N)C(c2ccccc2)C(C(=O)Nc2ccccc2)=C(C)N1 (configuration not stated) | 3.76 | 1.91 | > 100 |
| Fc1ccc2nc(Nc3nc(-c4ccccn4)cs3)sc2c1 | 1.26 | 0.216 | 3.04 |
| Cc1ccc(Cn2c(N3CCC(C(=O)NCc4ccc(F)cc4)CC3)nc3ccccc32)cc1 | > 7.51 | 3.18 | > 100 |
| CN1CCCN(C(=O)C2CC23CCN(Cc2ccc(N(C)c4ccccc4)cc2)CC3)CC1 (configuration not stated) | 1.32 | 2.58 | 20.8 |
| Cc1ccc(N2C(N)=NC(N)=NC2(C)C)c(C)c1 | 0.105 | > 12.5 | > 100 |
| CCOC(=O)N1CCN(S(=O)(=O)c2ccc(C(=O)Nc3sc4c(c3C(N)=O)CCN(CC)C4)cc2)CC1 | > 12.5 | 1.39 | 20.4 |

| Compound | EC50 (Plasmodium falciparum [1]) [µM] | EC50 (Plasmodium falciparum [2]) [µM] | CC50 [3] [µM] |
| --- | --- | --- | --- |
| O=C1CC(c2ccccc2)CC2=C1C(c1ccccc1[N+](=O)[O-])Nc1ccccc1N2 (configuration not stated) | 3.47 | 1.11 | > 100 |
| Cc1cc(Nc2cccc(F)c2)nc(NCc2ccccc2)n1 | 0.0722 | 0.664 | 20.8 |
| O=C1c2ccccc2-c2nc3c(Cl)cc(C(F)(F)F)cc3nc21 | 1.03 | 0.747 | > 10 |
| Oc1ccccc1-c1nc2ncccn2c1Nc1cccc(C(F)(F)F)c1 | 2.12 | 1.02 | > 100 |
| CCCCCCOc1ccc(NC(=O)c2ccco2)cc1 | 1.39 | 1.2 | > 10 |
| O=C(NCCCCCCCCNC(=O)Nc1ccc(C2=NCCN2)cc1)Nc1ccc(C2=NCCN2)cc1 | 0.0854 | 0.0459 | > 10 |
| Cc1cc(CNC(=O)CC2C(=O)NCCN2Cc2ccccc2C(F)(F)F)nn1C (configuration not stated) | > 0.0274 | > 1.25 | > 10 |
| O=C1C(NC2CCCC2)=C(N2CCOCC2)C(=O)c2ccccc21 | 0.119 | 0.139 | 37.9 |
| COc1ccc(CCNC(=O)c2cc(S(=O)(=O)N3CCC4(CC3)OCCO4)ccc2F)cc1OC | > 1.25 | > 1.16 | > 10 |
| CCCCN(CCCC)CC(O)c1cc(-c2ccc(Cl)cc2)nc2cc(Cl)ccc12 (configuration not stated) | 0.189 | 0.0326 | > 12.4 |
| Oc1ccc(-c2ccc(F)cc2)cc1CN1CCCCCC1 | 0.111 | 0.0196 | > 100 |
| CC(C)C[C@H](NC(=O)N1CCOCC1)C(=O)N[C@H](/C=C/S(=O)(=O)c1ccccc1)CCc1ccccc1 | 0.21 | 0.0377 | 48.8 |
| CCc1ccc(C(Nc2cc(C)ccn2)c2ccc3cccnc3c2O)cc1 (configuration not stated) | 1.47 | 0.163 | > 100 |
| COc1ccccc1-n1c(S)nnc1-c1ccccc1O | 0.276 | 0.295 | > 10 |
| CCCCC(=O)N(C/C=C/c1ccccc1OC)CCN1CCN(C(=O)NC23CC4CC(CC(C4)C2)C3)CC1 | 1.45 | 0.313 | > 10 |
| Cc1ccn2c(NC(C)(C)CC(C)(C)C)c(-c3ccccc3OC(=O)c3ccco3)nc2c1 | 0.828 | 0.0341 | > 10 |
| COc1ccc(OC)c(C(C(=O)NC2CCCC2)N(C(=O)c2snc(C(N)=O)c2N)c2ccccc2OC)c1 (configuration not stated) | 2.54 | 1.79 | > 100 |
